Our source for the MIC values is patent US9538754B2, “Combinations of pyrimethanil and monoterpenes” (Janssen Pharmaceutica NV, priority 2010, dated 2017).

Common to all, as to assay: Poison Plate Assay
Assay type in all cases: cell-based

Assay [1] deals with Chaetomium globosum CEB1218.2. Particulars: CEB1218.2, 336 h, pyrimethanil (I) with thymol (II-a), ppm total active ingredient, Glucose Agar, 27° C., growth evaluated after two weeks, read-out: MIC-values (minimum inhibitory concentration) in ppm. The protocol: (§1) • Name of component (I): pyrimethanil • Name of component (II): thymol (II-a) • β-thujaplicin (II-b) • Test models: Fungi: to each well of a 24-well microliter plate, 1000 μl of Glucose Agar (GA: 10 g glucose, 1.5 g K2HPO4, 2 g KH2PO4, 1 g (NH4)2SO4, 0.5 g MgSO4 and 12.5 g agar in 1 liter deionised water) containing the appropriate combination of the test compounds in one of the concentrations of a dose series is added. The nutrient medium is inoculated with the test fungi by adding a sporeimycelium suspension (10 μl) or a small piece of agar from the margin of an actively growing colony and incubated under dark at 27° C. with 70% relative humidity. […] In addition to this dose series, pyrimethanil single was also tested at 9.50-7.13-5.34-4.01-3.01-2.25-1.69-1.27-0.95-0.71-0.53-0.40 ppm in order to define a lower limit to its activity.
(§2) A. G. Nass (1957) “Some aspects of the notions additivity, synergism and antagonism in the simultaneous activity of two antibacterial agents in vitro” Arch. intern. Pharmaco-dynamie 109: 211-228; Steinberg, D. C. (2000) “Measuring synergy” cosmetics & Toiletries 115(11): 59-62; and Lada, A., A. N. Petrocci, H. A. Green, and J. J. Merianos (1977) “Antimicrobial composition” U.S. Pat. No. 4,061,750, 3 pp.):
(§3) [formula] wherein: • QA is the concentration of compound A in ppm, acting alone, which produced an end point (e.g. MIC), • Qa is the concentration of compound A in ppm, in the mixture, which produced an end point (e.g. MIC), • QB is the concentration of compound B in ppm, acting alone, which produced an end point (e.g. MIC), • Qb is the concentration of compound B in ppm, in the mixture, which produced an end point (e.g. MIC). When the Synergy Index is greater than 1.0, antagonism is indicated. When the SI is equal to 1.0, additivity is indicated.

In assay [2] the test system is Stachybotrys atra CBS328.37. Particulars: CBS328, 336 h, pyrimethanil (I) with thymol (II-a), ppm total active ingredient, Glucose Agar, 27° C., growth evaluated after two weeks, read-out: MIC-values (minimum inhibitory concentration) in ppm. The protocol: as §1, §2, §3
In assay [3] the test system is Ulocladium atrum IMI 214669a. The note with it: Alternaria atra, IMI214669A, 336 h, pyrimethanil (I) with β-thujaplicin (II-b), ppm total active ingredient, Glucose Agar, 27° C., growth evaluated after two weeks, read-out: MIC-values (minimum inhibitory concentration) in ppm. The protocol: as §1, §2, §3

Regarding `Cc1cc(C)nc(Nc2ccccc2)n1` [component (I), 4,6-dimethyl-N-phenyl-2-pyrimidinamine], the MIC in assay [1] amounted to 400 µg/mL; in assay [2], 127 µg/mL; in assay [3], 23 µg/mL.
